Columns and labels:
HIS-TGFβR1 T204D = molecular target: T1, HIS-TGFβR1 T204D (Homo sapiens, UniProt P36897, T204D); test: HTRF probe-displacement assay, HIS-TGFβR1 T204D; type: binding; details: read-out: TGFβR1 (μM) IC50
T1 sequence (P36897 34-503 T204D): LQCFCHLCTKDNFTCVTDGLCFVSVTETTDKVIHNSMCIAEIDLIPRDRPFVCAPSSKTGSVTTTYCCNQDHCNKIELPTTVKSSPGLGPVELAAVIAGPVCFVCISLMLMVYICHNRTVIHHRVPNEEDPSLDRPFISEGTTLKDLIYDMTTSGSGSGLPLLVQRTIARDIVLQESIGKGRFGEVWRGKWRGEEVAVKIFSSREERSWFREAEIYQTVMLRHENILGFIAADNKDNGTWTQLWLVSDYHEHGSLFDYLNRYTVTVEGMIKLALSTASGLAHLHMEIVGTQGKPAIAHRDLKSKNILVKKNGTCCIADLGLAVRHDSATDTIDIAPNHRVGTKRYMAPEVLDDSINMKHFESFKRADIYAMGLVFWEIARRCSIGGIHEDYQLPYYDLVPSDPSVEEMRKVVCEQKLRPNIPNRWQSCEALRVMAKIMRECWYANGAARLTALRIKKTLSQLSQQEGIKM

HIS-TGFβR2 WT = HIS-TGFβR2 WT (Homo sapiens, UniProt P37173); test: HTRF probe-displacement assay, HIS-TGFβR2 WT; type: binding
Chain of HIS-TGFβR2 WT (P37173 23-567): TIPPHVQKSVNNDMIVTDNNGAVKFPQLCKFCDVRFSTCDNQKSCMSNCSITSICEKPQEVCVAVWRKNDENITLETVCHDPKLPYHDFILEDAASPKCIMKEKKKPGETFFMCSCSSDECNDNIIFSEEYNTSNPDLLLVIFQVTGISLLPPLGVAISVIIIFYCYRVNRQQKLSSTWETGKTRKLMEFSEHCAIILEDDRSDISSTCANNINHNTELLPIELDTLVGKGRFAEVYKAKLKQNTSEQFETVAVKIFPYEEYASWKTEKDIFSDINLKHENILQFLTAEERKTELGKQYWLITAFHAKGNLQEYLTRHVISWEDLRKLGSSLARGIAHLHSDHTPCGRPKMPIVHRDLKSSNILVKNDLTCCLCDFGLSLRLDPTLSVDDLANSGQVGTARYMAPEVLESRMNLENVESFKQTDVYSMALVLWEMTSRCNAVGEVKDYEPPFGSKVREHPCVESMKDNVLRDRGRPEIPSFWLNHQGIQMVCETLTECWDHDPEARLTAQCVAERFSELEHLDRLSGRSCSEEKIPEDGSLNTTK

IC50 (HIS-TGFβR1 T204D)	IC50 (HIS-TGFβR2 WT)	SMILES
0.019 µM	15.5 µM	C[C@H](O)C(=O)Nc1cc(-c2[nH]c3cc(Cl)cnc3c2-c2ccc(F)cn2)ccn1 [Example 73]
0.004 µM	1.05 µM	CC(=O)Nc1cc(-c2[nH]c3c(C(C)O)ccnc3c2-c2ccc(F)cn2)ccn1 (centres unmarked) [Example 265, N-(4-(3-(5-Fluoropyridin-2-yl)-7-(1-hydroxyethyl)-1H-pyrrolo[3,2-b]pyridin-2-yl)pyridin-2-yl)acetamide]
0.017 µM	13.1 µM	CC(=O)Nc1cc(-c2[nH]c3cccnc3c2-c2cccc(C#N)n2)ccn1 [Example 15, N-{4-[3-(6-Cyanopyridin-2-yl)-1H-pyrrolo[3,2-b]pyridin-2-yl]pyridin-2-yl}acetamide]
0.049 µM	0.44 µM	CC(=O)Nc1cc(-c2[nH]c3cccnc3c2-c2cc(Cl)ccn2)ccn1 [Example 32, N-{4-[3-(4-Chloropyridin-2-yl)-1H-pyrrolo[3,2-b]pyridin-2-yl]pyridin-2-yl}acetamide]
0.003 µM	> 15 µM	CCOc1ccnc2c(-c3cccc(C(F)F)n3)c(-c3ccnc(NC(C)=O)c3)[nH]c12 [Example 125, N-(4-{3-[6-(Difluoromethyl)pyridin-2-yl]-7-ethoxy-1H-pyrrolo[3,2-b]pyridin-2-yl}pyridin-2-yl)acetamide]
0.021 µM	6.37 µM	COc1ccc(-c2c(-c3ccnc(NC(C)=O)c3)[nH]c3c(C(=O)NC(CO)CO)ccnc23)cn1 [Example 59, N-(1,3-Dihydroxypropan-2-yl)-2-(2-acetamidopyridin-4-yl)-3-(6-methoxypyridin-3-yl)-1H-pyrrolo[3,2-b]pyridine-7-carboxamide]
0.039 µM	> 15 µM	CC(=O)Nc1cc(-c2[nH]c3cccnc3c2-c2ccc3ncccc3c2)ccn1 [Example 22, N-{4-[3-(Quinolin-6-yl)-1H-pyrrolo[3,2-b]pyridin-2-yl]pyridin-2-yl}acetamide]
0.2 µM	6.05 µM	COc1ccnc(-c2c(-c3ccnc(NC(C)=O)c3)[nH]c3cccnc23)c1 [Example 28, N-{4-[3-(4-Methoxypyridin-2-yl)-1H-pyrrolo[3,2-b]pyridin-2-yl]pyridin-2-yl}acetamide]
< 0.001 µM	> 15 µM	COc1cnc2c(-c3cccc(C(F)F)n3)c(-c3ccnc(NC(=O)CN4CCN(CCO)CC4)c3)[nH]c2c1 [Example 123, N-(4-{3-[6-(Difluoromethyl)pyridin-2-yl]-6-methoxy-1H-pyrrolo[3,2-b]pyridin-2-yl}pyridin-2-yl)-2-[4-(2-hydroxyethyl)piperazin-1-yl]acetamide]
0.0023 µM	0.882 µM	CC(=O)Nc1cc(-c2[nH]c3cc(Cl)cnc3c2-c2ncc(C)s2)ccn1 [Example 169]
0.0005 µM	8.82 µM	CC(=O)Nc1cc(-c2[nH]c3c(C)ccnc3c2-c2nc(C(F)(F)F)cs2)ccn1 [Example 212, N-(4-(7-Methyl-3-(4-(trifluoromethyl)thiazol-2-yl)-1H-pyrrolo[3,2-b]pyridin-2-yl)pyridin-2-yl)acetamide]
0.0132 µM	> 15 µM	COc1ccc(-c2c(-c3ccnc(NC(C)=O)c3)[nH]c3cc(N4CC[C@H](O)[C@@H](O)C4)cnc23)nc1 [Example 166, N-(4-(6-((3S,4S)-3,4-Dihydroxypiperidin-l-yl)-3-(5-methoxypyridin-2-yl)-1H-pyrrolo[3,2-b]pyridin-2-yl)pyridin-2-yl)acetamide]
0.002 µM	> 15 µM	COc1ccc(-c2c(-c3ccnc(NC(=O)CN4CCS(=O)(=O)CC4)c3)[nH]c3cc(OC)cnc23)nc1 [Example 118, 2-(1,1-Dioxidothiomorpholino)-N-{4-[6-methoxy-3-(5-methoxypyridin-2-yl)-1H-pyrrolo[3,2-b]pyridin-2-yl]pyridin-2-yl}acetamide]
0.0014 µM	10.9 µM	COc1cnc2c(-c3nc(C(F)(F)F)cs3)c(-c3ccnc(NC(C)=O)c3)[nH]c2c1 [Example 229, N-(4-(6-Methoxy-3-(4-(trifluoromethyl)thiazol-2-yl)-1H-pyrrolo[3,2-b]pyridin-2-yl)pyridin-2-yl)acetamide]
0.005 µM	0.067 µM	COc1ccc(-c2c(-c3ccnc(NC(C)=O)c3)[nH]c3cc(F)cnc23)cn1 [Example 40, N-{4-[6-Fluoro-3-(6-methoxypyridin-3-yl)-1H-pyrrolo[3,2-b]pyridin-2-yl]pyridin-2-yl}acetamide]
0.0005 µM	0.037 µM	CC(=O)Nc1cc(-c2[nH]c3cc(Cl)cnc3c2-c2nc(C)cs2)ccn1 [Example 176, N-(4-(6-Chloro-3-(4-methylthiazol-2-yl)-1H-pyrrolo[3,2-b]pyridin-2-yl)pyridin-2-yl)acetamide]

IC50 (HIS-TGFβR1 T204D)	IC50 (HIS-TGFβR2 WT)	SMILES
0.01 µM	4.05 µM	COC(=O)Nc1cc(-c2[nH]c3cc(Cl)cnc3c2-c2ccc(F)cn2)ccn1 [Example 85, Methyl N-{4-[6-chloro-3-(5-fluoropyridin-2-yl)-1H-pyrrolo[3,2-b]pyridin-2-yl]pyridin-2-yl}carbamate]
0.0885 µM	0.999 µM	COc1ccc(-c2c(-c3ccnc(NC(C)=O)c3)[nH]c3c(C)ccnc23)cn1 [Example 215, N-(4-(3-(6-Methoxypyridin-3-yl)-7-methyl-1H-pyrrolo[3,2-b]pyridin-2-yl)pyridin-2-yl)acetamide]
0.001 µM	0.279 µM	CC(=O)Nc1cc(-c2[nH]c3c(C(C)O)ccnc3c2-c2cccc(Cl)n2)ccn1 (centres unmarked) [Example 263, N-(4-(3-(6-Chloropyridin-2-yl)-7-(1-hydroxyethyl)-1H-pyrrolo[3,2-b]pyridin-2-yl)pyridin-2-yl)acetamide]
0.006 µM	> 15 µM	CC(=O)Nc1cc(-c2[nH]c3c(C4CCOCC4)ccnc3c2-c2cccc(C)n2)ccn1 [Example 136, N-{4-[3-(6-Methylpyridin-2-yl)-7-(oxan-4-yl)-1H-pyrrolo[3,2-b]pyridin-2-yl]pyridin-2-yl}acetamide]
0.001 µM	8.75 µM	[2H]C([2H])([2H])Oc1ccc(-c2c(-c3ccnc(NC(C)=O)c3)[nH]c3cc(OC)cnc23)nc1 [Example 112, N-(4-(6-Methoxy-3-(5-(methoxy-d3)pyridin-2-yl)-1H-pyrrolo[3,2-b]pyridin-2-yl)pyridin-2-yl)acetamide]
0.007 µM	0.16 µM	COc1ccc(-c2c(-c3ccnc(NC(C)=O)c3)[nH]c3cc(CN)cnc23)cn1 [Example 79, N-(4-(6-(Aminomethyl)-3-(6-methoxypyridin-3-yl)-1H-pyrrolo[3,2-b]pyridin-2-yl)pyridin-2-yl)acetamide]
0.002 µM	2.42 µM	COc1cnc2c(-c3nc(C)ccc3F)c(-c3ccnc(NC(C)=O)c3)[nH]c2c1 [Example 111, N-(4-(3-(3-Fluoro-6-methylpyridin-2-yl)-6-methoxy-1H-pyrrolo[3,2-b]pyridin-2-yl)pyridin-2-yl)acetamide]
0.182 µM	> 15 µM	CC(=O)Nc1cc(-c2[nH]c3cc(F)cnc3c2-c2ncc(C(F)F)s2)ccn1 [Example 182, N-(4-(3-(5-(Difluoromethyl)thiazol-2-yl)-6-fluoro-1H-pyrrolo[3,2-b]pyridin-2-yl)pyridin-2-yl)acetamide]
0.001 µM	7.81 µM	CC(=O)Nc1cc(-c2[nH]c3c(CO)ccnc3c2-c2cccc(C(F)F)n2)ccn1 [Example 142, N-(4-{3-[6-(Difluoromethyl)pyridin-2-yl]-7-(hydroxymethyl)-1H-pyrrolo[3,2-b]pyridin-2-yl}pyridin-2-yl)acetamide]
0.0005 µM	1.38 µM	CC(=O)Nc1cc(-c2[nH]c3c(C)ccnc3c2-c2nc(C(F)F)cs2)ccn1 [Example 220, N-(4-(3-(4-(Difluoromethyl)thiazol-2-yl)-7-methyl-1H-pyrrolo[3,2-b]pyridin-2-yl)pyridin-2-yl)acetamide]
0.002 µM	14.5 µM	CC(=O)N1CCN(CC(=O)Nc2cc(-c3[nH]c4cc(Cl)cnc4c3-c3ccc(F)cn3)ccn2)CC1 [Example 248, 2-(4-Acetylpiperazin-1-yl)-N-(4-(6-chloro-3-(5-fluoropyridin-2-yl)-1H-pyrrolo[3,2-b]pyridin-2-yl)pyridin-2-yl)acetamide]
0.003 µM	0.115 µM	CC(=O)Nc1cc(-c2[nH]c3c(C(C)O)ccnc3c2-c2nc(C)cs2)ccn1 (centres unmarked) [Example 232, N-(4-(7-(1-Hydroxyethyl)-3-(4-methylthiazol-2-yl)-1H-pyrrolo[3,2-b]pyridin-2-yl)pyridin-2-yl)acetamide]
0.009 µM	0.3 µM	CC(=O)Nc1cc(-c2[nH]c3c(Cl)ccnc3c2-c2cccc(F)n2)ccn1 [Example 64, N-{4-[7-Chloro-3-(6-fluoropyridin-2-yl)-1H-pyrrolo[3,2-b]pyridin-2-yl]pyridin-2-yl}acetamide]
0.0014 µM	4.06 µM	CC(=O)Nc1cc(-c2[nH]c3c(C(C)F)ccnc3c2-c2cccc(C(F)F)n2)ccn1 (centres unmarked) [Example 233, N-(4-(3-(6-(Difluoromethyl)pyridin-2-yl)-7-(1-fluoroethyl)-1H-pyrrolo[3,2-b]pyridin-2-yl)pyridin-2-yl)acetamide]
0.001 µM	> 15 µM	CCCc1ccnc2c(-c3cccc(C(F)F)n3)c(-c3ccnc(NC(C)=O)c3)[nH]c12 [Example 132, N-(4-{3-[6-(Difluoromethyl)pyridin-2-yl]-7-propyl-1H-pyrrolo[3,2-b]pyridin-2-yl}pyridin-2-yl)acetamide]

From patent US9708316B2 (BRISTOL-MYERS SQUIBB COMPANY, priority 2014, dated 2017)
